Test results published in patent US12522596B2, “Compounds as GLP-1R agonists” (Terns Pharmaceuticals, Inc., priority 2021, dated 2026).
Where “and” joins values, the source holds several entries; their conditions need not be identical. Equal entries are not always repeated. Where two headings read alike, the source gives them in different places. Marks after values point to notes of the source that are not given here.

Experiment: Pharmacokinetics in hGLP-1R mice after oral dosing
Type: in vivo, male C57BL/6J hGLP-1R mouse
Description: IPGTT (120 min)—PK bleeding: 40 μL blood samples (all treatment groups) were collected from mice under the jaw at IPGTT-120 min after blood glucose measurement into pre-chilled EDTA-2K tubes. Blood samples were processed for plasma by centrifugation at 4° C., 3200×g for 10 min. 15 μL plasma was stored at −80° C. for PK analysis. From 4 mice in Group 7 of the PD cohort, whole brain was collected after blood is harvested at 120 min post dose, rinsed with saline and patted dry and placed into a pre-weighed tube and stored at −80° C. collected for PK analysis.
PK bleeding group design is described in Table 9.
PK bleeding: 30 μL blood was collected at 0.25, 0.5, 1, 2, 4, and 8 h. Blood samples were processed for plasma by centrifugation at 4° C., 3200×g for 10 min. 12 μL plasma was collected at −80° C. for further analysis. From 3 mice in Group 7 of the PK cohort, whole brain was collected after blood is harvested at 8 hr post dose, rinsed with saline and patted dry and placed into a pre-weighed tube and stored at −80° C. collected for PK analysis.
For plasma: An aliquot of 3 μL sample was protein precipitated with 60 μL internal standard (100 ng/mL Labetalol & 100 ng/ml Dexamethasone & 100 ng/ml Tolbutamide & 100 ng/mL Verapamil & 100 ng/ml Glyburide & 100 ng/ml Celecoxib in ACN) and then the mixture was vortex-mixed for 10 min at 800 rpm and centrifuged for 15 min at 3220×g, 4° C.
The linear/log trapezoidal rule was applied in obtaining the PK parameters. Individual plasma concentration values that were below the lower limit of quantitation (LOQ) were excluded from the PK parameter calculation. The nominal dose levels and nominal sampling times were used in the calculation of all pharmacokinetic parameters.

[1] = hGLP-1R mouse plasma, PO 0.3 mg/kg, individual mice, 0.3 mg/kg
[2] = hGLP-1R mouse plasma, PO 0.3 mg/kg, mean
[3] = hGLP-1R mouse plasma, PO 1 mg/kg, individual mice, 1 mg/kg
[4] = hGLP-1R mouse plasma, PO 1 mg/kg, mean

N#Cc1ccc(COc2cccc(C3CCN(Cc4nc5ccc(C(=O)O)cc5n4C[C@@H]4CCO4)CC3)n2)c(F)c1 [Reference Compound A, reference compound]
increase of exposure with dose (dose proportionality) (hGLP-1R mice, PO, Reference Compound A 0.3-1 mg/kg, Compound 2 0.3-3 mg/kg): approximately dose proportional manner | Concentration (hGLP-1R mouse plasma collected at 120 min (IPGTT cohort), PO 0.3 mg/kg, individual animals, 0.3 mg/kg): 8.61 ng/mL and 8.10 ng/mL and 5.55 ng/mL and 7.19 ng/mL and 6.60 ng/mL and 6.14 ng/mL | Concentration (hGLP-1R mouse plasma collected at 120 min (IPGTT cohort), PO 1 mg/kg, individual animals, 1 mg/kg): 29.7 ng/mL and 31.0 ng/mL and 17.9 ng/mL and 14.2 ng/mL and 15.9 ng/mL and 14.9 ng/mL and 26.5 ng/mL | Concentration (hGLP-1R mouse plasma, PO 0.3 mg/kg, 0.25 h, individual animals, 0.3 mg/kg): 11.2 ng/mL and 16.7 ng/mL and 46.8 ng/mL | Concentration (hGLP-1R mouse plasma, PO 0.3 mg/kg, 0.5 h, individual animals, 0.3 mg/kg): 17.6 ng/mL and 14.6 ng/mL | Concentration (hGLP-1R mouse plasma, PO 0.3 mg/kg, 1 h, individual animals, 0.3 mg/kg): 13.4 ng/mL and 23.5 ng/mL and 11.1 ng/mL | Concentration (hGLP-1R mouse plasma, PO 0.3 mg/kg, 2 h, individual animals, 0.3 mg/kg): 2.43 ng/mL and 4.91 ng/mL and 2.76 ng/mL | Concentration (hGLP-1R mouse plasma, PO 0.3 mg/kg, 4 h, individual animals, 0.3 mg/kg): BQL | Concentration (hGLP-1R mouse plasma, PO 0.3 mg/kg, 8 h, individual animals): BQL | Tlast (hGLP-1R mouse plasma, PO 0.3 mg/kg, individual mice): 2.00 h | AUC0-inf [1]: 22.9 ng·h/mL and 40.5 ng·h/mL and 19.4 ng·h/mL | AUC0-last [1]: 21.2 ng·h/mL and 35.4 ng·h/mL and 17.0 ng·h/mL | AUCExtra [1]: 7.39% and 12.7% and 12.4% | AUMCExtra [1]: 21.1% and 35.8% and 32.0% | Cmax [1]: 19.6 ng/mL and 46.8 ng/mL and 14.6 ng/mL | MRT0-inf [1]: 1.08 h and 1.11 h | MRT0-last [1]: 0.797 h and 0.861 h | T1/2 [1]: 0.727* h and 0.602 h | Tmax [1]: 0.250 h | AUCExtra [2]: 10.8% | AUMCExtra [2]: 29.6% | Tlast [2]: 2.00 h | Concentration (hGLP-1R mouse plasma, PO 1 mg/kg, 0.25 h, individual animals, 1 mg/kg): 31.9 ng/mL and 31.8 ng/mL | Concentration (hGLP-1R mouse plasma, PO 1 mg/kg, 0.5 h, individual animals, 1 mg/kg): 40.2 ng/mL and 41.2 ng/mL | Concentration (hGLP-1R mouse plasma, PO 1 mg/kg, 1 h, individual animals, 1 mg/kg): 48.7 ng/mL and 23.7 ng/mL and 46.0 ng/mL | Concentration (hGLP-1R mouse plasma, PO 1 mg/kg, 2 h, individual animals, 1 mg/kg): 22.4 ng/mL and 5.72 ng/mL and 15.4 ng/mL | Concentration (hGLP-1R mouse plasma, PO 1 mg/kg, 4 h, individual animals, 1 mg/kg): BQL and 3.21 ng/mL | Concentration (hGLP-1R mouse plasma, PO 1 mg/kg, 8 h, individual animals): BQL | AUC0-inf [3]: 86.4 ng·h/mL and 89.9 ng·h/mL | AUC0-last [3]: 68.7 ng·h/mL and 86.7 ng·h/mL | AUCExtra [3]: 3.91% and 20.5% and 3.54% | AUMCExtra [3]: 13.8% and 58.3% and 18.2% | Cmax [3]: 40.2 ng/mL and 46.0 ng/mL | MRT0-inf [3]: 1.45 h and 4.55 h and 2.05 h | MRT0-last [3]: 2.39 h and 1.74 h | T1/2 [3]: 0.791 h and 3.42* h and 1.77* h | Tlast [3]: 4.00 h and 8.00 h (2×) | Tmax [3]: 1.00 h | AUCExtra [4]: 9.32% | AUMCExtra [4]: 30.1% | AUC(0-t) (male, C57BL/6J hGLP-1R, mouse, plasma, po, 0.3 mg/kg, hGLP-1R mice, total, PO 0.3 mg/kg, read-out: AUClast Mean): 24.5 ng·h/mL | Cmax (male, C57BL/6J hGLP-1R, mouse, plasma, po, 0.3 mg/kg, hGLP-1R mice, total, PO 0.3 mg/kg, read-out: Cmax Mean): 27 ng/mL | half-life (male, C57BL/6J hGLP-1R, mouse, plasma, po, 0.3 mg/kg, hGLP-1R mice, total, PO 0.3 mg/kg, read-out: T1/2 (converted)): 0.604 h | Tmax (male, C57BL/6J hGLP-1R, mouse, plasma, po, 0.3 mg/kg, hGLP-1R mice, total, PO 0.3 mg/kg, read-out: Tmax Median): 0.5 h | concentration at 120 min (male, C57BL/6J hGLP-1R, mouse, plasma, po, 0.3 mg/kg, hGLP-1R mouse plasma collected at 120 min (IPGTT cohort), PO 0.3 mg/kg, individual animals, read-out: Concentration): 7.91 ng/mL
